Key:
L1210 = assay: Antitumor activity against mouse L1210 cells allografted in ip dosed BDF1 mouse at optimum dose administered qd for 5 days relative to control; assay type: functional
P388 = assay: Antitumor activity against mouse P388 cells allografted in ip dosed BDF1 mouse at optimum dose administered qd for 5 days relative to control; assay type: functional
Bos taurus = species on record: Bos taurus; assay: Displacement of ethidium bromide from calf thymus DNA by spectrofluorometric analysis
Mus musculus [1] = assay: (§1) Toxicity in ip dosed BDF1 mouse allografted with mouse P388 cells administered qd for 5 days; assay type: organism-based; conditions: mouse, in vivo, 120 h
Pseudoalteromonas = assay: Induction of bacteriophage PM2 closed circular DNA unwinding assessed as drug per nucleic acid phosphate ratio at equivalence by viscometric analysis
[2] = Lipophilic-hydrophilic balance, Rm of the compound by reversed-phase chromatographic analysis; assay type: physicochemical
[3] = (§2) Toxicity in ip dosed BDF1 mouse allografted with mouse L1210 cells administered qd for 5 days; assay type: organism-based; conditions: BDF1, mouse, in vivo
[4] = as §1; assay type: organism-based; conditions: BDF1, mouse, in vivo
Mus musculus [5] = assay: as §2; assay type: organism-based; conditions: mouse, in vivo, 120 h

Br.O.O=S(=O)(CCNc1ccnc2ccccc12)Nc1ccc(Nc2c3ccccc3nc3ccccc23)cc1
ILS (L1210): >25%
ILS (P388): 36%
C50 (Bos taurus): 0.12 µM
Activity (Mus musculus [1]): 90 mg/kg/day
Ratio (Pseudoalteromonas): 0.12
Rm [2]: -0.54
MTD at 120 h [3]: 90 mg/kg/day

CS(=O)(=O)Nc1ccc(Nc2ccnc3ccccc23)cc1
ILS (L1210): >25%
ILS (P388): >25%
C50 (Bos taurus): 490 µM
MTD at 120 h [4]: 200 mg/kg/day
Rm [2]: -0.39
MTD at 120 h [3]: 200 mg/kg/day

Br.O=S(=O)(CCCCNc1ccnc2ccccc12)Nc1ccc(Nc2c3ccccc3nc3ccccc23)cc1
ILS (L1210): 29%
ILS (P388): 76%
C50 (Bos taurus): 0.18 µM
Activity (Mus musculus [1]): 75 mg/kg/day
Ratio (Pseudoalteromonas): 0.091
Rm [2]: -0.31
Activity (Mus musculus [5]): 75 mg/kg/day

COc1cc(NS(=O)(=O)CCCCS(=O)(=O)Nc2ccc(Nc3c4ccccc4nc4ccccc34)c(OC)c2)ccc1Nc1c2ccccc2nc2ccccc12
ILS (L1210): 26%
ILS (P388): 39%
C50 (Bos taurus): 0.057 µM
Activity (Mus musculus [1]): > 500 mg/kg/day
Ratio (Pseudoalteromonas): 0.041
Rm [2]: 0.27
Activity (Mus musculus [5]): > 500 mg/kg/day

Br.O.O=S(=O)(CCCCCCNc1ccnc2ccccc12)Nc1ccc(Nc2c3ccccc3nc3ccccc23)cc1
ILS (L1210): >25%
ILS (P388): >25%
C50 (Bos taurus): 0.65 µM
MTD at 120 h [4]: 75 mg/kg/day
Rm [2]: -0.09
MTD at 120 h [3]: 75 mg/kg/day

Cl.O.O=S(=O)(CCCCCNc1ccnc2ccccc12)Nc1ccc(Nc2c3ccccc3nc3ccccc23)cc1
ILS (L1210): >25%
ILS (P388): 37%
C50 (Bos taurus): 0.4 µM
Activity (Mus musculus [1]): 200 mg/kg/day
Rm [2]: -0.24
MTD at 120 h [3]: 200 mg/kg/day

Cl.O.O=S(=O)(CCCS(=O)(=O)Nc1ccc(Nc2c3ccccc3nc3ccccc23)cc1)Nc1ccc(Nc2c3ccccc3nc3ccccc23)cc1
ILS (L1210): >25%
ILS (P388): 29%
C50 (Bos taurus): 0.064 µM
Activity (Mus musculus [1]): 250 mg/kg/day
Rm [2]: -0.16
MTD at 120 h [3]: 250 mg/kg/day

COc1cc(NS(C)(=O)=O)ccc1Nc1c2ccccc2nc2ccccc12 [AMSACRINE]
ILS (L1210): 114%
C50 (Bos taurus): 10.8 µM
Activity (Mus musculus [1]): 6.7 mg/kg/day
Ratio (Pseudoalteromonas): 0.082
Rm [2]: 0.18
Activity (Mus musculus [5]): 6.7 mg/kg/day

Cl.O.O=S(=O)(CCCNc1c2ccccc2nc2ccccc12)Nc1ccc(Nc2c3ccccc3nc3ccccc23)cc1
ILS (L1210): >25%
ILS (P388): 38%
C50 (Bos taurus): 0.1 µM
Activity (Mus musculus [1]): 300 mg/kg/day
Rm [2]: -0.25
MTD at 120 h [3]: 300 mg/kg/day

Cl.O.O=S(=O)(CCNc1c2ccccc2nc2ccccc12)Nc1ccc(Nc2c3ccccc3nc3ccccc23)cc1
ILS (L1210): >25%
ILS (P388): 31%
C50 (Bos taurus): 0.09 µM
Activity (Mus musculus [1]): 60 mg/kg/day
Ratio (Pseudoalteromonas): 0.078
Rm [2]: -0.17
MTD at 120 h [3]: 60 mg/kg/day

c1ccc(Nc2c3ccccc3nc3ccccc23)cc1
ILS (L1210): >25%
ILS (P388): >25%
C50 (Bos taurus): 13 µM
MTD at 120 h [4]: 105 mg/kg/day
Rm [2]: 0.43
MTD at 120 h [3]: 105 mg/kg/day
